{"source": "patent US9353082B2", "about": "“Pharmaceutical compounds” (BIAL—PORTELA & CA, S.A., priority 2008, dated 2016)"}
{"target": "T1, FAAH (Rattus norvegicus, UniProt P97612)", "T1 construct": "Frozen brains (without cerebellum) from Wistar rats were used; from tissue; host or cells: Wistar rat brain (without cerebellum), washed membrane pellets", "T1 sequence (P97612 1-579)": "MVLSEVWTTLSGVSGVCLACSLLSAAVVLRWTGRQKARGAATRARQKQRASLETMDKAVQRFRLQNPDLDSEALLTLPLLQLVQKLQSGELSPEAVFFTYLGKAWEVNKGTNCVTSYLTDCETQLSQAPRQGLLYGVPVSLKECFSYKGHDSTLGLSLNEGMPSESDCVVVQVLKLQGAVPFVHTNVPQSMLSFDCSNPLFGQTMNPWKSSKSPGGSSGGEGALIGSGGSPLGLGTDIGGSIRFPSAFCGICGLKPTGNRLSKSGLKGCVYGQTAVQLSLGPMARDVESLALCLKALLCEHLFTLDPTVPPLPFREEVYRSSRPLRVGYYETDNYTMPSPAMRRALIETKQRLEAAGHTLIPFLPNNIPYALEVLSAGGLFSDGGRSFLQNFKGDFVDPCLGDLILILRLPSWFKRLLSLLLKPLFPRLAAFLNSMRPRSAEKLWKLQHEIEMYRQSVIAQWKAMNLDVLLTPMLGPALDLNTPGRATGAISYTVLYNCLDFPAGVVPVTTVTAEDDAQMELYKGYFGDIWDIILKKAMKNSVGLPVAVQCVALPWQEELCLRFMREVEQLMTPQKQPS", "assay": "In vitro FAAH activity in rat brain membranes, 3H-AEA substrate, % of control", "type": "biochemical, Wistar rats", "conditions": "100 nM test compound, low value = strong inhibitor", "how_it_was_run": "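FAAH activity measured as 3H-ethanolamine released from 2 μM [3H]AEA over 10 min by rat brain membrane preparation, after 15 min 37 °C preincubation with test compound at 10 or 0.1 μM. Charcoal-separated supernatant scintillation-counted; values expressed as % of control minus no-protein blank.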"}
{"smiles": "O=C(N1CCc2ccccc2C1)n1cnc(-c2ccccc2)c1", "note": "[Compound 184, (3,4-dihydroisoquinolin-2(1H)-yl)(4-phenyl-1H-imidazol-1-yl)methanone]", "In Vitro FAAH activity, 100 nM": "30.2 % of control"}
{"smiles": "O=C(N1CCc2ccccc2C1)n1cnc(-c2ccc(Cl)cc2)n1", "note": "[Compound 185, (3-(4-chlorophenyl)-1H-1,2,4-triazol-1-yl)(3,4-dihydroisoquinolin-2(1H)-yl)methanone]", "In Vitro FAAH activity, 100 nM": "71.8 % of control"}
{"smiles": "CN(Cc1ccccc1)C(=O)n1cnc(-c2ccc3ccccc3c2)n1", "note": "[Compound 190, N-benzyl-N-methyl-3-(naphthalen-2-yl)-1H-1,2,4-triazole-1-carboxamide]", "In Vitro FAAH activity, 100 nM": "20.7 % of control"}
{"smiles": "CN(C(=O)n1cnc(-c2cccc3ccccc23)n1)c1ccccc1", "note": "[Compound 192, N-methyl-3-(naphthalen-1-yl)-N-phenyl-1H-1,2,4-triazole-1-carboxamide]", "In Vitro FAAH activity, 100 nM": "64.6 % of control"}
{"smiles": "C[C@@H]1CN(C(=O)n2nnc3ccccc32)C[C@@H](C)O1", "note": "[Compound 193, (1H-benzo[d][1,2,3]triazol-1-yl)((2R,6R)-2,6-dimethylmorpholino)methanone]", "In Vitro FAAH activity, 100 nM": "110.2 % of control"}
{"smiles": "C[C@@H]1CN(C(=O)n2nnc3ccccc32)C[C@H](C)O1", "note": "[Compound 194, (1H-benzo[d][1,2,3]triazol-1-yl)((2S,6R)-2,6-dimethylmorpholino)methanone]", "In Vitro FAAH activity, 100 nM": "64.2 % of control"}
{"smiles": "O=C(N1CCC(CCCc2ccccc2)CC1)n1cnc(-c2ccc(Cl)cc2)c1", "note": "[Compound 197, (4-(4-chlorophenyl)-1H-imidazol-1-yl)(4-(3-phenylpropyl)piperidin-1-yl)methanone]", "In Vitro FAAH activity, 100 nM": "0.3 % of control"}
{"smiles": "O=C(N1CCC2(CC1)OCCO2)n1cnc(-c2ccc(Cl)c(Cl)c2)c1", "note": "[Compound 198, (4-(3,4-dichlorophenyl)-1H-imidazol-1-yl)(1,4-dioxa-8-azaspiro[4.5]decan-8-yl)methanone]", "In Vitro FAAH activity, 100 nM": "33 % of control"}
{"smiles": "CN(C(=O)n1cnc(-c2cccc(OCCN3CCNCC3)c2)c1)c1ccccc1.Cl.Cl", "note": "[Compound 200, N-methyl-N-phenyl-4-(3-(2-(piperazin-1-yl)ethoxy)phenyl)-1H-imidazole-1-carboxamide dihydrochloride]", "In Vitro FAAH activity, 100 nM": "100.1 % of control"}
{"smiles": "O=C(N1CCN(C2CCCCC2)CC1)n1cnc(-c2ccc(F)c(F)c2)c1", "note": "[Compound 201, (4-cyclohexylpiperazin-1-yl)(4-(3,4-difluorophenyl)-1H-imidazol-1-yl)methanone]", "In Vitro FAAH activity, 100 nM": "0.3 % of control"}
{"smiles": "CCN(CCOCc1ccccc1)C(=O)n1nnc2ccccc21", "note": "[Compound 202, N-(2-(benzyloxy)ethyl)-N-ethyl-1H-benzo[d][1,2,3]triazole-1-carboxamide]", "In Vitro FAAH activity, 100 nM": "0.1 % of control"}
{"smiles": "O=C(N1CCC2(CC1)OCCO2)n1cnc(-c2ccc(Cl)cc2)n1", "note": "[Compound 204, (3-(4-chlorophenyl)-1H-1,2,4-triazol-1-yl)(1,4-dioxa-8-azaspiro[4.5]decan-8-yl)methanone]", "In Vitro FAAH activity, 100 nM": "15.8 % of control"}
{"smiles": "COc1ccc(-c2ncn(C(=O)N3CCC(CCCc4ccccc4)CC3)n2)cc1", "note": "[Compound 205, (3-(4-methoxyphenyl)-1H-1,2,4-triazol-1-yl)(4-(3-phenylpropyl)piperidin-1-yl)methanone]", "In Vitro FAAH activity, 100 nM": "0.2 % of control"}
{"smiles": "O=C(N1CCN(c2ccccc2)CC1)n1cnc(-c2cccc3ccccc23)n1", "note": "[Compound 206, (3-(naphthalen-1-yl)-1H-1,2,4-triazol-1-yl)(4-phenylpiperazin-1-yl)methanone]", "In Vitro FAAH activity, 100 nM": "3.3 % of control"}
{"smiles": "NC(=O)c1ccc(Oc2cccc(-c3ncn(C(=O)N4CCc5ccccc5C4)n3)c2)cc1", "note": "[Compound 207, 4-(3-(1-(1,2,3,4-tetrahydroisoquinoline-2-carbonyl)-1H-1,2,4-triazol-3-yl)phenoxy)benzamide]", "In Vitro FAAH activity, 100 nM": "31.6 % of control"}
{"smiles": "NC(=O)c1ccc(Oc2cccc(-c3ncn(C(=O)N4CCOCC4)n3)c2)cc1", "note": "[Compound 210, 4-(3-(1-(morpholine-4-carbonyl)-1H-1,2,4-triazol-3-yl)phenoxy)benzamide]", "In Vitro FAAH activity, 100 nM": "73.3 % of control"}
{"smiles": "COc1ccc(-c2ncn(C(=O)N3CCN(c4ccc(F)cc4)CC3)n2)cc1", "note": "[Compound 211, (4-(4-fluorophenyl)piperazin-1-yl)(3-(4-methoxyphenyl)-1H-1,2,4-triazol-1-yl)methanone]", "In Vitro FAAH activity, 100 nM": "1.9 % of control"}
{"smiles": "Cl.O=C(N1CCN(C2CCCCC2)CC1)n1cnc(-c2ccc(Cl)cc2)n1", "note": "[Compound 212, (3-(4-chlorophenyl)-1H-1,2,4-triazol-1-yl)(4-cyclohexylpiperazin-1-yl)methanone hydrochloride]", "In Vitro FAAH activity, 100 nM": "0.8 % of control"}
{"smiles": "O=C(N1CCSC1)n1cnc(-c2ccc(Cl)cc2)n1", "note": "[Compound 214, (3-(4-chlorophenyl)-1H-1,2,4-triazol-1-yl)(thiazolidin-3-yl)methanone]", "In Vitro FAAH activity, 100 nM": "23.7 % of control"}
{"smiles": "O=C(N1CCSC1)n1cnc(-c2ccc(F)c(F)c2)c1", "note": "[Compound 215, (4-(3,4-difluorophenyl)-1H-imidazol-1-yl)(thiazolidin-3-yl)methanone]", "In Vitro FAAH activity, 100 nM": "16.7 % of control"}
{"smiles": "O=C(N1CCCC1)n1cnc(-c2ccc(Cl)c(Cl)c2)c1", "note": "[Compound 218, (4-(3,4-dichlorophenyl)-1H-imidazol-1-yl)(pyrrolidin-1-yl)methanone]", "In Vitro FAAH activity, 100 nM": "31.6 % of control"}
{"smiles": "O=C(N1CCN(c2ccc(F)cc2)CC1)n1cnc(-c2ccc(Cl)cc2)c1", "note": "[Compound 223, (4-(4-chlorophenyl)-1H-imidazol-1-yl)(4-(4-fluorophenyl)piperazin-1-yl)methanone]", "In Vitro FAAH activity, 100 nM": "1.1 % of control"}
{"smiles": "Br.CN(C(=O)n1cnc(-c2ccc(OCCN3CCCCC3)cc2)c1)c1ccccc1", "note": "[Compound 224, N-methyl-N-phenyl-4-(4-(2-(piperidin-1-yl)ethoxy)phenyl)-1H-imidazole-1-carboxamide hydrobromide]", "In Vitro FAAH activity, 100 nM": "90 % of control"}
{"smiles": "COc1cc(-c2cn(C(=O)N3COCC3(C)C)cn2)ccc1OCc1ccccc1", "note": "[Compound 225, (4-(4-(benzyloxy)-3-methoxyphenyl)-1H-imidazol-1-yl)(4,4-dimethyloxazolidin-3-yl)methanone]", "In Vitro FAAH activity, 100 nM": "79 % of control"}
{"smiles": "CC1OCCN1C(=O)n1cnc(-c2ccccc2)c1", "note": "(stereo not shown) [Compound 227, (2-methyloxazolidin-3-yl)(4-phenyl-1H-imidazol-1-yl)methanone]", "In Vitro FAAH activity, 100 nM": "64.7 % of control"}
{"smiles": "CN(C(=O)n1cnc(-c2ccccc2)c1)C12CC3CC(CC(C3)C1)C2", "note": "[Compound 229]", "In Vitro FAAH activity, 100 nM": "99.2 % of control"}
{"smiles": "CN(C(=O)n1cnc(-c2ccc(OCCN3CCOCC3)cc2)c1)c1ccccc1.Cl", "note": "[Compound 230, N-methyl-4-(4-(2-morpholinoethoxy)phenyl)-N-phenyl-1H-imidazole-1-carboxamide hydrochloride]", "In Vitro FAAH activity, 100 nM": "96.1 % of control"}
{"smiles": "O=C(OCCN(C(=O)n1cnc(-c2ccccc2)c1)C1=CCCC1)n1cnc(-c2ccccc2)c1", "note": "[Compound 234, 2-(N-cyclopentenyl-4-phenyl-1H-imidazole-1-carboxamido)ethyl 4-phenyl-1H-imidazole-1-carboxylate]", "In Vitro FAAH activity, 100 nM": "78.2 % of control"}
{"smiles": "O=C(NC12CC3CC(CC(C3)C1)C2)n1cnc(-c2ccccc2)c1", "note": "[Compound 237]", "In Vitro FAAH activity, 100 nM": "91.6 % of control"}
{"smiles": "O=C(N1CCOC1c1ccccc1)n1cnc(-c2ccc(Cl)cc2)c1", "note": "(stereo not shown) [Compound 241, (4-(4-chlorophenyl)-1H-imidazol-1-yl)(2-phenyloxazolidin-3-yl)methanone]", "In Vitro FAAH activity, 100 nM": "76.5 % of control"}
{"smiles": "CN(C(=O)n1nnc2ccc(O)cc21)C1CCCCC1", "note": "[Compound 242, N-cyclohexyl-6-hydroxy-N-methyl-1H-benzo[d][1,2,3]triazole-1-carboxamide]", "In Vitro FAAH activity, 100 nM": "0 % of control"}
{"smiles": "CC1(C)COCN1C(=O)n1nnc2cc(-c3cccc(C(N)=O)c3)ccc21", "note": "[Compound 243, 3-(1-(4,4-dimethyloxazolidine-3-carbonyl)-1H-benzo[d][1,2,3]triazol-5-yl)benzamide]", "In Vitro FAAH activity, 100 nM": "39.7 % of control"}
{"smiles": "CN(C(=O)n1cnc(-c2ccc(Cl)cc2)c1)C1CCCC1", "note": "[Compound 244, 4-(4-chlorophenyl)-N-cyclopentyl-N-methyl-1H-imidazole-1-carboxamide]", "In Vitro FAAH activity, 100 nM": "5.4 % of control"}
{"smiles": "CN(C(=O)n1cnc(-c2cccc(-c3cccc(F)c3)c2)c1)C1CCCCC1", "note": "[Compound 246, N-cyclohexyl-4-(3′-fluorobiphenyl-3-yl)-N-methyl-1H-imidazole-1-carboxamide]", "In Vitro FAAH activity, 100 nM": "2.9 % of control"}
